Measurements taken from US20160143971A1, “COMBINATION THERAPY FOR PROSTATE CANCER USING BOTANICAL COMPOSITIONS AND DOCETAXEL” (GENYOUS BIOMED INTERNATIONAL, priority 2013, published 2016).

Key:
[1] = system: androgen-independent metastatic prostate cancer; details: TAX 327 phase III study, patients; cited from earlier work
[2] = system: human prostate cancer cells in mouse xenografts; details: cited from earlier work
[3] = system: human prostate cancer cells in culture; details: cited from earlier work
PSA = details: cited from earlier work
[4] = cited from earlier work
[5] = system: LNCaP (androgen-sensitive) human prostate cancer tumors SRCX; assay: Growth of LNCaP prostate cancer tumors SRCX in mice; type: in vivo; details: 3 weeks
Method: LNCaP prostate cancer was treated for 3 weeks according to the following regimen.

Structure (SMILES) | overall response rate [1] [%] | anti-proliferative effect [2] | anti-proliferative effect [3] | PSA expression (PSA) | water solubility compared with paclitaxel [4] | inhibition of growth of LNCaP tumors ([5]; Aneustat 1652 mg/kg oral gavage QD x 21, Taxotere 10 mg/kg IP d=1, 8, 15, P<0.01) | efficacy in tumor size reduction (FIG. 1) ([5]; Aneustat 1652 mg/kg oral, Taxotere 10 mg/kg IP)
O=C1c2c(O)ccc(O)c2C(=O)c2c(NCCNCCO)ccc(NCCNCCO)c21 [mitoxantrone] | 7 | – | – | – | – | – | –
COc1cc(CNC(=O)CCCC/C=C/C(C)C)ccc1O [capsaicin] | – | profound anti-proliferative effect | profound anti-proliferative effect | down-regulates PSA expression | – | – | –
CC(=O)O[C@@]12CO[C@@H]1C[C@H](O)[C@@]1(C)C(=O)[C@H](O)C3=C(C)[C@@H](OC(=O)[C@H](O)[C@@H](NC(=O)OC(C)(C)C)c4ccccc4)C[C@@](O)([C@@H](OC(=O)c4ccccc4)[C@H]21)C3(C)C [Taxotere®, docetaxel] | 12 | – | – | – | more water soluble than paclitaxel | significantly inhibited growth | somewhat more effective
